Source: patent US8030493B2, “Monovalent and divalent salts of N-(5-hydroxynicotinoil) -L-glutamic acid exhibiting psychotropic (antidepressant and anxiolytic), neuroprotective, geroprotective and cerebroprotective action” (Obschestvo S Ogranichennoy Otvetstvennostyu “Natsionalnaya …, priority 2006, dated 2011)
Values joined by “and” are separate entries in the source; they are usually repeats but may differ in a detail not shown here. Identical values can stand only once. Marks after values point to notes of the source that are not given here.

How the values were obtained:
[1] = test system: rats with massive cortical ischemia; experiment: Model of massive cortical ischemia (occlusion of middle cerebral artery): ischemic damage of cerebral cortex; type: in vivo; settings: for Intensity of ischemic damage of cerebral cortex (slice score, points), slice 1 / Intensity of ischemic damage of cerebral cortex (slice score, points), slice 2 / Intensity of ischemic damage of cerebral cortex (slice score, points), slice 3 / Intensity of ischemic damage of cerebral cortex (slice score, points), slice 4 / Intensity of ischemic damage of cerebral cortex (slice score, points), slice 5: 72 hours after OMCA
Experimental: White nondescript male rats with body weight 350-450 g anesthetized with chloral hydrate (400 mg/kg, intraperitoneally) were used in the experiments. After ligation of left carotid occlusion of middle cerebral artery (OMCA) was made under the microscope (magnification 14.0×3.3) proximal to bifurcation to frontal and parietal branches (S. T. Chen et al., Stroke, 1986, v. 17, No 4, p. 738-743).
After the surgery the animals were randomized into 3 groups. Experimental animals received Compound I or nooglutyl intraperitoneously 30 minutes, 2, 24, and 48 hours after the surgery. Control animals at the same time points received saline (0.9% sodium chloride solution). 72 hours after OMCA the animals were decapitated. Material frozen at −20° C. was used for preparation of 5 frontal slices 2.5 mm thick, which were painted with 2,3,5-triphenyltetrazolium solution (TPTZ). Auc1 morphometric program was used to perform planimetria, determination of affected zone extent and percentage of affected zone extent in relation to volume of ipsilateral hemisphere. The surgery results in creation of vast ischemic damage of the brain cortex, which is localized within frontal-parietal and dorsal-lateral zones. To compare intensity of the changes in different slices arbitrary scale was used, with 75%, 60%, 45%, 20%, 5%, and 0% affection of hemisphere assessed as 2.5 points, 2 points, 1.5 points, 1 point, 0.5 points, and 0 points, respectively.

aged rats (24 months) = experiment: Motor coordination of aged rats on rotating rod; type: in vivo; settings: for Number of the animals (%), which obtained the skill, By attempt 5 / Number of the animals (%), which obtained the skill, By attempt 15 / Number of the animals (%), which obtained the skill, By attempt 10: aged rats 24 months, 20 mg/kg 60 days, rotating rod 2 minutes; for Number of the animals (%), which obtained the skill, By attempt 10: 20 mg/kg; for Number of attempts required for learning to 50% of the animals: aged rats treated for 2 months, untreated aged animals 17th attempt
Experimental: White nondescript male rats (Wistar line): to adult animals at age 3 months with body weight 250-300 g and aged 24 month old animals with body weight 350-450 g were used in the study. Nooglutyl at dose level 20 mg/kg and Compound I were administered to aged rats intraperitoneally for 2 months followed by assessment of the effect on learning capacity impaired by age and neurological deficit. Analysis of variance with Student's test, variant portion method and U-test were employed for data processing.
To assess neurological deficit in aged animals (disturbed coordination and capacity for learning motor responses) the rats were placed on the rotating rod. The number of attempts required to obtain the skill of holding on the rotating rod for 2 minutes was registered. […] Under similar conditions only 25% of aged rats obtained this skill starting from the 11th-14th attempt. […] 60% of aged rats treated with nooglutyl and 66% of aged rats treated with Compound I for 2 months learned the skill by the 10th attempt.

mice SAM P 10 [2] = experiment: Antidepressant activity: forced swimming in mice SAM; type: in vivo; settings: first 6 minutes of forced swimming
Experimental: Exp. Gerontolol. 1997, […]. et al. Age-related deterioration in conditional avoidance task in the SAM-P/10 mouse, an animal model of spontaneous brain atrophy. Brain Res., 1993, v. 608, p. 266-272). To assess depressive condition the method of forced swimming was used (Porsolt R. D. et al., Behavioral despair in rats: a new model sensitive to antidepressant treatment. Europ. J. […] The mice were placed into cylinder 10 cm in diameter and 25 cm height. Cylinder was filled with water by 1⁄3 (27° C.). After unsuccessful attempts to get out of the water the animals have typical immovable posture, which is regarded as manifestation of “despair”.

mice SAM P 10 [3] = experiment: Anxiolytic activity: elevated criss-cross labyrinth in mice SAM P10; type: in vivo; settings: 5 minutes observation
Excerpt: (Takeda T. et al. Senescence-Accelerated Mouse (SAM): A novel murine model of accelerated senescence. J. Amer. Geriatr. Soc. 1991, v. 39, p. 911-919). The animals belonging to this line are characterized by genetically determined depression and impairment of learning capacity, these symptoms intensively aggravate since 6 months of age (accelerated senescence) (Miyamoto M., Characteristics of age-related behavioral changes in senescence-accelerated mouse SAMP8 and SAMP10. Exp. Gerontolol. 1997, v. 32, p. 139-148; Shimada A. et al. Age-related deterioration in conditional avoidance task in the SAM-P/10 mouse, an animal model of spontaneous brain atrophy. Brain Res., 1993, v. 608, p. 266-272). Assessment of anxiety level of the mice was carried out under conditions of “elevated criss-cross labyrinth” (ECCL) method (Pellow S. et al. Validation of open:closed arm entries in elevated plus-maze as a measure of anxiety in the rat. Neurosci Meth J. 1985, No 14, p. 149-167; Voronina T. A. et al. “Textbook for Experimental (Preclinical Study) of novel pharmacological compounds”. Moscow, Medicina. 2005, p. 253-263). Labyrinth comprises crossed bands 5×45 cm, with two opposed compartments having vertical walls 30 cm height (closed, dark arms), and two other compartments are open, light arms. Labyrinth is situated 30 cm above the floor. Central platform […] is located at the cross of the planes. The mice were placed on the central platform with their tails directed to light arm. Time spent by the animals in open and closed arms, and the number of entering light and dark arms was registered. Total observation period comprised 5 minutes for each animal. Time spent in the open arms of the unit was considered as the measure of anxiolytic effect.

[4] = test system: white nondescript male mice; experiment: in vivo; settings: white nondescript (outbred), mouse, ip, 2 days
Experimental: The study of acute daily toxicity of Compound I was carried out on white nondescript male mice with body weight 25-28 g, which lived in habitual conditions in vivarium and received feed and water ad libitum. Single dose of Compound I was administered intraperitoneally. The animals were under observation for 2 days after the dosing. The dose levels of Compound I used in the toxicity study were as follows: 800 mg/kg, 1000 mg/kg, 1200 mg/kg, 1500 mg/kg, 1600 mg/kg. Compound I was dissolved in distilled water and administered in 0, 1 ml per 10 g of the body weight of the animal when the doses 800 mg/kg and 1000 mg/kg, and in 0.2 ml per 10 g of the body weight when the doses 1200 mg/kg, 1500 mg/kg, 1600 mg/kg were used. Control animals received distilled water in the volume 0.2 ml per 10 g of the body weight.
Each dose group comprised 10 animals.

[5] = 40 mg/kg intraperitoneally 30 minutes, 2, 24, 48 hours after surgery
[6] = 50 mg/kg intraperitoneally 30 minutes, 2, 24, 48 hours after surgery

SMILES: O=C([O-])CC[C@H](NC(=O)c1cncc(O)c1)C(=O)[O-].[Ca+2] [Compound I, Calcium N-(5-hydroxynicotinoyl)-L-glutamate]
- Total affected area (percentage of volume of ipsilateral hemisphere) ([1]; 40 mg/kg after ischemia-inducing exposure): 10.54±1.84%
- Intensity of ischemic damage of cerebral cortex (slice score, points), slice 1 [1, 5]: 0.08 ± 0.01 points
- Intensity of ischemic damage of cerebral cortex (slice score, points), slice 2 [1, 5]: 0.92 ± 0.12 points
- Intensity of ischemic damage of cerebral cortex (slice score, points), slice 3 [1, 5]: 0.7 ± 0.19 points
- Intensity of ischemic damage of cerebral cortex (slice score, points), slice 4 [1, 5]: 0.58 ± 0.14 points
- Intensity of ischemic damage of cerebral cortex (slice score, points), slice 5 [1, 5]: 0.2 ± 0.15 points
- Decrease of total affected extent versus control ([1]; 40 mg/kg, p<0.05): 47.3%
- Number of the animals (%), which obtained the skill, By attempt 5 (aged rats (24 months)): 20%
- Number of the animals (%), which obtained the skill, By attempt 15 (aged rats (24 months)): 66# %
- Number of the animals (%), which obtained the skill, By attempt 10 (aged rats (24 months)): 66% and 60# %
- Number of attempts required for learning to 50% of the animals (aged rats (24 months)): 6 attempt
- Period of active behaviour (mice SAM P 10 [2]; 10 mg/kg): 190.00 ± 9.50 s
- Period of active behaviour (mice SAM P 10 [2]; 20 mg/kg): 225.00 ± 10.97 s
- Number of entries the closed arms (mice SAM P 10 [3]; 5 mg/kg): 15.6 ± 2.1
- Number of entries the opened arms (mice SAM P 10 [3]; 5 mg/kg): 5.7 ± 0.6
- Time spent in the closed arms (c) (mice SAM P 10 [3]; 5 mg/kg): 247.0 ± 6.4 c
- Time spent in the opened arms (c) (mice SAM P 10 [3]; 5 mg/kg): 21.1 ± 4.6 c
- Number of entries the closed arms (mice SAM P 10 [3]; 10 mg/kg): 20.51 ± 3.1
- Number of entries the opened arms (mice SAM P 10 [3]; 10 mg/kg): 7.7 ± 0.2
- Time spent in the closed arms (c) (mice SAM P 10 [3]; 10 mg/kg): 262.0 ± 22.1 c
- Time spent in the opened arms (c) (mice SAM P 10 [3]; 10 mg/kg): 23.9 ± 5.8 c
- Number of entries the closed arms (mice SAM P 10 [3]; 20 mg/kg): 19.3 ± 2.5
- Number of entries the opened arms (mice SAM P 10 [3]; 20 mg/kg): 13.0 ± 1.1
- Time spent in the closed arms (c) (mice SAM P 10 [3]; 20 mg/kg): 234.8 ± 8.7 c
- Time spent in the opened arms (c) (mice SAM P 10 [3]; 20 mg/kg): 28.4 ± 6.2 c
- LD16 [4]: 900 mg/kg
- LD84 [4]: 1450 mg/kg

SMILES: O=C(O)CC[C@H](NC(=O)c1cncc(O)c1)C(=O)O [Nooglutyl, N-(5-hydroxynicotinoyl)-L-glutamic acid, reference compound]
- Total affected area (percentage of volume of ipsilateral hemisphere) ([1]; 50 mg/kg after ischemia-inducing exposure): 14.3±2.14%
- Intensity of ischemic damage of cerebral cortex (slice score, points), slice 1 [1, 6]: 0.28 ± 0.06 points
- Intensity of ischemic damage of cerebral cortex (slice score, points), slice 2 [1, 6]: 1.12 ± 0.17 points
- Intensity of ischemic damage of cerebral cortex (slice score, points), slice 3 [1, 6]: 1.01 ± 0.11 points
- Intensity of ischemic damage of cerebral cortex (slice score, points), slice 4 [1, 6]: 0.59 ± 0.19 points
- Intensity of ischemic damage of cerebral cortex (slice score, points), slice 5 [1, 6]: 0.18 ± 0.14 points
- Number of the animals (%), which obtained the skill, By attempt 5 (aged rats (24 months)): 20%
- Number of the animals (%), which obtained the skill, By attempt 15 (aged rats (24 months)): 60# %
- Number of the animals (%), which obtained the skill, By attempt 10 (aged rats (24 months)): 60# %
- Number of the animals (%), which obtained the skill, By attempt 10 (aged rats (24 months); listed as nooglutyl): 60%
- Number of attempts required for learning to 50% of the animals (aged rats (24 months)): 7 attempt
